Structures can show the parent of a compound that is named as a salt. Where two headings read alike, the source gives them in different places.
Columns and labels:
Type in all cases: cell-based, human
[1] = tested on: TSGH-8301 (Urinary Bladder Carcinoma); test: Cell viability analysis, bladder cancer TSGH-8301; details: Homo sapiens, 72 h
[2] = tested on: A549 (Lung Adenocarcinoma); test: Cell viability analysis, lung cancer A549; details: Homo sapiens, A549, 72 h
[3] = tested on: HeLa (Cervix Adenocarcinoma); test: Cell viability analysis, cervical cancer HeLa; details: Homo sapiens, HeLa, 72 h
[4] = tested on: LoVo (Colorectal Adenocarcinoma); test: Cell viability analysis, colon cancer LoVo; details: Homo sapiens, LoVo, 72 h, read-out: cell viability (survival rate), LoVo, drug 10 μM, 72 hours, WST-1, OD450 nm
[5] = tested on: HepG2 (Hepatocellular Carcinoma); test: Cell viability analysis, hepatic cancer HepG2; details: Homo sapiens, HepG2, 72 h
[6] = tested on: MKN-45 (Gastric Adenocarcinoma); test: Cell viability analysis, gastric cancer MKN-45; details: Homo sapiens, MKN-45, 72 h
[7] = tested on: MCF7 (Mammary Gland, Adenocarcinoma); test: Cell viability analysis, breast cancer MCF7; details: Homo sapiens, MCF7, 72 h
[8] = tested on: HL-60 (Acute Promyelocytic Leukemia); test: Cell viability analysis, leukemia HL-60; details: Homo sapiens, HL-60, 72 h
[9] = tested on: PC3 (p53−) (Prostate Adenocarcinoma); test: Cell viability analysis, prostate cancer PC3; details: Homo sapiens, 72 h
[10] = tested on: A375 (Amelanotic Melanoma); test: Cell viability analysis, skin cancer A375; details: Homo sapiens, A-375, 72 h
cancer cell lines = test: Cell viability analysis (WST-1) on cancer cell lines; details: drug 10 μM, 72 hours, WST-1; Table 3
[11] = tested on: HI650 (Lung Adenocarcinoma); test: Cell viability analysis, lung cancer HI650; details: Homo sapiens, NCI-H1650, 72 h
[12] = tested on: AGS (Gastric Adenocarcinoma); test: Cell viability analysis, gastric cancer AGS; details: Homo sapiens, 72 h
[13] = drug 10 μM, 72 hours, WST-1, OD450 nm, read-out: cell viability (survival rate), TSGH
[14] = drug 10 μM, 72 hours, WST-1, OD450 nm, read-out: cell viability (survival rate), A549
[15] = drug 10 μM, 72 hours, WST-1, OD450 nm, read-out: cell viability (survival rate), HeLa
[16] = drug 10 μM, 72 hours, WST-1, OD450 nm, read-out: cell viability (survival rate), HepG2
[17] = drug 10 μM, 72 hours, WST-1, OD450 nm, read-out: cell viability (survival rate), MKN-45
[18] = drug 10 μM, 72 hours, WST-1, OD450 nm, read-out: cell viability (survival rate), MCF7
[19] = drug 10 μM, 72 hours, WST-1, OD450 nm, read-out: cell viability (survival rate), HL-60
[20] = drug 10 μM, 72 hours, WST-1, OD450 nm, read-out: cell viability (survival rate), PC3
[21] = drug 10 μM, 72 hours, WST-1, OD450 nm, read-out: cell viability (survival rate), A375
[22] = drug 10 μM, 72 hours, WST-1, OD450 nm, read-out: cell viability (survival rate), H1650
[23] = drug 10 μM, 72 hours, WST-1, OD450 nm, read-out: cell viability (survival rate), AGS
[24] = read-out: cell viability (survival rate), TSGH, drug 10 μM, 72 hours, WST-1, OD450 nm
[25] = read-out: cell viability (survival rate), A549, drug 10 μM, 72 hours, WST-1, OD450 nm
[26] = read-out: cell viability (survival rate), HeLa, drug 10 μM, 72 hours, WST-1, OD450 nm
[27] = read-out: cell viability (survival rate), HepG2, drug 10 μM, 72 hours, WST-1, OD450 nm
[28] = read-out: cell viability (survival rate), MKN-45, drug 10 μM, 72 hours, WST-1, OD450 nm
[29] = read-out: cell viability (survival rate), MCF7, drug 10 μM, 72 hours, WST-1, OD450 nm
[30] = read-out: cell viability (survival rate), HL-60, drug 10 μM, 72 hours, WST-1, OD450 nm
[31] = read-out: cell viability (survival rate), PC3, drug 10 μM, 72 hours, WST-1, OD450 nm
[32] = read-out: cell viability (survival rate), A375, drug 10 μM, 72 hours, WST-1, OD450 nm
[33] = read-out: cell viability (survival rate), H1650, drug 10 μM, 72 hours, WST-1, OD450 nm
[34] = read-out: cell viability (survival rate), AGS, drug 10 μM, 72 hours, WST-1, OD450 nm

Row | SMILES | viability at 10 µM [1, 13] [%] | viability at 10 µM [2, 14] [%] | viability at 10 µM [3, 15] [%] | viability at 10 µM [4] [%] | viability at 10 µM [5, 16] [%] | viability at 10 µM [6, 17] [%] | viability at 10 µM [7, 18] [%] | viability at 10 µM [8, 19] [%] | viability at 10 µM [9, 20] [%] | viability at 10 µM [10, 21] [%] | inhibition effect on different cancer cell lines (cancer cell lines) | viability at 10 µM [11, 22] [%] | viability at 10 µM [12, 23] [%] | viability at 10 µM [1, 24] [%] | viability at 10 µM [2, 25] [%] | viability at 10 µM [3, 26] [%] | viability at 10 µM [5, 27] [%] | viability at 10 µM [6, 28] [%] | viability at 10 µM [7, 29] [%] | viability at 10 µM [8, 30] [%] | also measured
1 | O=C(C[S+]([O-])Cc1ccco1)NC/C=C\COc1cc(CN2CCCCC2)ccn1 (stereo not drawn) [Lafutidine] | 51.9 | 21.3 | 46.9 | 48 | 102 | 89.6 | 33.6 | 95.3 | 40.7 | 116 | significant inhibition effect | 80.1 | 45.5 | – | – | – | – | – | – | – | –
2 | CO/N=C(\C(=O)N[C@@H]1C(=O)N2C(C(=O)OCOC(=O)C(C)(C)C)=C(/C=C\c3scnc3C)CS[C@H]12)c1csc(N)n1 [Cefditoren pivoxil] | 94.8 | 45.7 | 58.7 | 83.5 | 96.9 | 70.5 | 38.4 | 110 | 83.9 | 69.1 | significant inhibition effect | 80.7 | 86.5 | – | – | – | – | – | – | – | –
3 | O=C(O)c1cccnc1Nc1cccc(C(F)(F)F)c1 [Niflumic acid] | 66.8 | 99.2 | 51.9 | 82 | 87.4 | 68.7 | 86.9 | 132 | 111 | 50 | significant inhibition effect | 50.8 | 40.5 | – | – | – | – | – | – | – | –
4 | Nc1nc(O)c2ncn(COC(CO)CO)c2n1 [Ganciclovir] | – | – | – | 99.9 | – | – | – | – | – | – | significant inhibition effect | – | – | 103 | 104 | 107 | 109 | 87 | 68.6 | 98.7 | viability at 10 µM [9, 31]: 71.8%; viability at 10 µM [10, 32]: 94.8%; viability at 10 µM [11, 33]: 97.3%; viability at 10 µM [12, 34]: 106%
5 | N#CC(c1ccc(Cl)cc1)c1c(Cl)cc(-n2ncc(=O)[nH]c2=O)cc1Cl (stereo not drawn) [Diclazuril] | 103 | 42.7 | 76.1 | 78.4 | 99.3 | 97.9 | 40.4 | 70.2 | 95.5 | 84.5 | significant inhibition effect | 104 | 76.3 | – | – | – | – | – | – | – | –
6 | CN(C/C=C/c1ccccc1)Cc1cccc2ccccc12 [Naftifine HCl] | – | – | – | 86.3 | – | – | – | – | – | – | significant inhibition effect | – | – | 79.6 | 127 | 80.6 | 91.2 | 58.5 | 84.5 | 93.2 | viability at 10 µM [9, 31]: 109%; viability at 10 µM [10, 32]: 63.3%; viability at 10 µM [11, 33]: 72.3%; viability at 10 µM [12, 34]: 104%

Reference: patent US10105357B2, “Indication of antibiotic drugs for preparation of cancer inhibition pharmaceutical composition” (LAUNX BIOMEDICAL CO., LTD., priority 2014, dated 2018)
